US11446298B2, “Pyrimidine derivatives” (Idorsia Pharmaceuticals Ltd, priority 2017, dated 2022)

Key:
Assay type in all cases: cell-based
PTGER2 (EP2) = molecular target: T1, PTGER2 (EP2) (Homo sapiens, UniProt P43116); assay: hEP2 b-Arrestin Assay (PathHunter HEK 293 PTGER2 b-arrestin cells, PGE2 5 μM); conditions: antagonistic activity, beta-arrestin assay, HEK 293 PTGER2 cells, PGE2 5 μM (EC80); read-out: hEP2 b-arr IC50
T1 construct: host or cells: HEK 293 (PathHunter, stably transfected)
Description: (§1) The antagonistic activities of the compounds of formula (I) on the EP2 and EP4 receptors are also determined in accordance with the following experimental method.
The assay is using the PathHunter™ HEK 293 PTGER2 and PTGER4 b-arrestin cell lines from DiscoverX. The system is based on the Enzyme Fragment Complementation Technology. Two complementing fragments of the b-galactosidase enzyme are expressed within stably transfected cells. The larger portion of b-gal, termed EA for Enzyme Acceptor, is fused to the C-terminus of b-arrestin 2. The smaller fragment, termed ProLink™ tag, is fused to PTGER2 (EP2) or PTRGER4 (EP4) at the C-terminus. Upon activation, b-arrestin is recruited which forces the interaction of ProLink and EA, allowing complementation of the two fragments of b-gal and the formation of a functional enzyme which is capable of hydrolysing the substrate and generating a chemiluminescent signal.
The HEK 293 PTGER2 b-arrestin cells (DiscoverX 93-021-4C1) are detached from culture dishes with a cell dissociation buffer (Invitrogen, 13151-014), and collected in growing medium (GM: DMEM+Glutamax-I (Invitrogen 32430)/10% FCS, 1% Penicilin/streptomycin). 5000 cells per well of a 384 well plate (white with white bottom Greiner 781080) are seeded in 20 μl per well of GM. Plate is incubated at 37° C., 5% CO2 for 24 hours.
Stock solutions of test compounds are made at a concentration of 10 mM in DMSO, and serially diluted in DMSO to concentrations required for inhibition dose response curves (tested concentration range 10 μM-2 nM or 1 μM-0.2 nM).
PGE2 (Cayman 14010, stock solution: 10 mM in DMSO) is used as agonist at 5 μM final concentration, corresponding to EC80.
Five microliters of diluted compounds are transferred into the assay plate. Plate is pre-incubated 15 minutes at 37° C. Then five microliters of PGE2 (final conc. 5 μM) are transferred into the assay plate. Plate is incubated 120 minutes at 37° C.
PathHunter Glo Detection Kit components are thawed and mix according to manufacturer's instructions: 1 part Galacton Star Substrate with 5 parts Emerald II™ Solution, and 19 parts of PathHunter Cell Assay Buffer, respectively. Twelve μl of reagent are transferred to the assay plate and incubate for 1 hour at room temperature in the dark. Luminescence counts are read on a BMG Fluostar Optima reader according to manufacturer's instructions.
For each compound concentration calculate of the percentage of activity compared to DMSO control value as average ±STDEV. (each concentration is measured in duplicate)
(§2) IC50 values and curves are generated with XLfit software (IDBS) using Dose-Response One Site model 203. When compounds were measured multiple times, mean values are given.

EP2 = molecular target: T2, EP2 (Homo sapiens, UniProt P43116); assay: hEP2 cAMP Assay (SF295 glioblastoma cells, HTRF cAMP, PGE2 75 nM); conditions: antagonistic activity, PGE2 75 nM (EC80)
T2 construct: SF295 glioblastoma cells express high endogenous EP2 and no EP4; host or cells: SF295 glioblastoma cells
Description: as §1
(§3) Human tumor cell lines expressing endogenously either EP4 or EP2 are used and cAMP accumulation in cells upon PGE2 stimulation is monitored. SF295 glioblastoma cells express high endogenous EP2 and no EP4, whereas BT549 breast cancer cells, express high endogenous EP4 levels and very low EP2 levels.
(§4) As a detection method for cAMP the HTRF (homogeneous time resolved fluorescence) Cisbio kit (HTRF cAMP dynamic 2 kit 20′000 tests Cisbio Cat. #62AM4PEC) was used, which is based on a competitive immunoassay using a Cryptate-labeled anti-cAMP antibody and d2-labeled cAMP. Native cAMP produced by cells or unlabeled cAMP (for the standard curve) compete with exogenously added d2-labeled cAMP (acceptor) for binding to monoclonal anti-cAMP-Eu3+Cryptate (donor). A FRET signal (Fluorescence Resonance Energy Transfer) is obtained only if the labeled anti-cAMP antibody binds the d2 labelled cAMP, thus the specific signal (i.e. energy transfer) is inversely proportional to the concentration of cAMP in the standard or sample.
(§5) The SF295 cells (NCI/No. 0503170) are detached from culture dishes with a cell dissociation buffer (Invitrogen, 13151-014), and collected in growing medium (GM: RPM11640 (Invitrogen 21875)/10% FCS, 1% Penicilin/streptomycin). Cells are counted washed and resuspended in assay buffer (AB; HBSS, 20 mM HEPES, 0.2% BSA; 2 mM IBMX). 4′000 cells in 5 μL of AB are seeded per well of a small volume 384 well plate (black with flat bottom, Greiner 784076).
(§6) Stock solutions of test compounds are made at a concentration of 10 mM in DMSO, and serially diluted in DMSO to concentrations required for inhibition dose response curves (tested concentration range 30 μM-0.4 nM; 30 μM-0.015 nM or 1 μM-0.01 nM).
PGE2 (Cayman 14010, stock solution: 75 μM in DMSO) is used as agonist at 75 nM final concentration, corresponding to EC80.
(§7) 2.5 μL of diluted compounds are transferred into the assay plate. Plate is pre-incubated 45 minutes at room temperature. Subsequently, 2.5 μL of PGE2 (final conc. 75 nM) are transferred into the assay plate. Plate is incubated 30 minutes at room temperature. Five μL of each donor (anti-cAMP cryptate) and acceptor (cAMP-d2) are added and the plate is incubated another hour at room temperature in the dark and then read using a BMG LABTECH PHERAstar reader (Excitation: 337 nm, Emission: 620 and 665 nm).
(§8) The obtained Delta F (fluorescence) values (665 nm/620 nM) are converted into % cAMP values using the measurements of the cAMP calibrator provided in the kit. For each compound concentration the percentage of cAMP compared to DMSO control value as average ±STDEV (each concentration is measured in duplicate) is calculated.
as §2

EP4 = molecular target: T3, EP4 (Homo sapiens, UniProt P35408); assay: hEP4 cAMP Assay (BT549 breast cancer cells, HTRF cAMP, PGE2 6 nM); conditions: antagonistic activity, PGE2 6 nM (EC80)
T3 construct: BT549 breast cancer cells, express high endogenous EP4 levels and very low EP2 levels; host or cells: BT549 breast cancer cells
Description: as §1, §3, §4
as §5, with “BT549” for “SF295”, “0507282)” for “0503170)”, “RPMI1640” for “RPM11640”
as §6
PGE2 (Cayman 14010, stock solution: 6 uM in DMSO) is used as agonist at 6 nM final concentration, corresponding to EC80.
as §7, with “6” for “75”, “5” for “Five”
as §8, §2

T1 sequence (P43116 whole entry): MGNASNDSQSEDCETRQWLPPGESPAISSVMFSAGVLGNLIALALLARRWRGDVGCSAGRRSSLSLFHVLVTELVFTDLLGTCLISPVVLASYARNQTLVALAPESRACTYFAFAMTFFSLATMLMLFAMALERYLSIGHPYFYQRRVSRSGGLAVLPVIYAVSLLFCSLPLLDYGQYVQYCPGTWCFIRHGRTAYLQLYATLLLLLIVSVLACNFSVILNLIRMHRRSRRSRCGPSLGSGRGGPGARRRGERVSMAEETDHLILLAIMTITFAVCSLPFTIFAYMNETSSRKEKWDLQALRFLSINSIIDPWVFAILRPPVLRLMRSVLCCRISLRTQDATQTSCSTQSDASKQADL
T2 sequence (P43116 whole entry): as above
T3 sequence (P35408 whole entry): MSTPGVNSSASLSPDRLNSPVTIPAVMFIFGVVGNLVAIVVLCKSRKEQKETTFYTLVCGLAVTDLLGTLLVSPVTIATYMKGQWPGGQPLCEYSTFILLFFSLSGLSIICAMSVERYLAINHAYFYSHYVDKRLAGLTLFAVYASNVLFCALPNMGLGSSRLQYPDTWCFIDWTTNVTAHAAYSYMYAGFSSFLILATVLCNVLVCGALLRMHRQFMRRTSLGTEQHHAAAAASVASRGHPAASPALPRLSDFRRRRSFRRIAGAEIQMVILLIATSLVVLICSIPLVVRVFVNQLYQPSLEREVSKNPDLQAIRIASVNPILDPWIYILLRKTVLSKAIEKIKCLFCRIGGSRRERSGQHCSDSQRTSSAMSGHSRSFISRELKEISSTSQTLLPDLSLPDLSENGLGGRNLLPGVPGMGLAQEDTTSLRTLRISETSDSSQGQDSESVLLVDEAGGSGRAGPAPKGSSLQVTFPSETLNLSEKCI

## CCOc1cc(-c2cc(NCCc3c(C(F)F)ccc4ccccc34)ncn2)sc1C(=O)O [Example 70, 5-{6-[2-(2-Difluoromethyl-naphthalen-1-yl)-ethylamino]-pyrimidin-4-yl}-3-ethoxy-thiophene-2-carboxylic acid]
PTGER2 (EP2)
  IC50: 78 nM
EP2
  IC50: 163 nM
EP4
  IC50: 368 nM

## COc1ccc2ccccc2c1CCNc1cc(-c2cc3ccc(C(=O)O)cc3[nH]2)ncn1 [Example 127, 2-{6-[2-(2-Methoxy-naphthalen-1-yl)-ethylamino]-pyrimidin-4-yl}-1H-indole-6-carboxylic acid]
PTGER2 (EP2)
  IC50: 9 nM
EP2
  IC50: 20 nM
EP4
  IC50: 416 nM

## COc1ccc2ccccc2c1CCNc1cc(-c2cc3cc(C(=O)O)ccc3[nH]2)ncn1 [Example 130, 2-{6-[2-(2-Methoxy-naphthalen-1-yl)-ethylamino]-pyrimidin-4-yl}-1H-indole-5-carboxylic acid]
PTGER2 (EP2)
  IC50: 13 nM
EP2
  IC50: 27 nM
EP4
  IC50: 546 nM

## O=C(O)c1ccc(-c2cc(NCCc3cccc4ccsc34)ncn2)cc1OC1CCC1 [Example 102, 4-[6-(2-Benzo[b]thiophen-7-yl-ethylamino)-pyrimidin-4-yl]-2-cyclobutoxy-benzoic acid]
PTGER2 (EP2)
  IC50: 145 nM
EP2
  IC50: 224 nM
EP4
  IC50: 263 nM

## O=C(O)c1ccc(-c2cc(NCCc3ccc(Cl)c4ccccc34)ncn2)cc1OC1CCC1 [Example 61, 4-{6-[2-(4-Chloro-naphthalen-1-yl)-ethylamino]-pyrimidin-4-yl}-2-cyclobutoxy-benzoic acid]
PTGER2 (EP2)
  IC50: 113 nM
EP2
  IC50: 183 nM
EP4
  IC50: 745 nM

## Cc1ccc(CCNc2cc(-c3ccc(C(=O)O)c(OC4CCC4)c3)ncn2)c2ccccc12 [Example 17, 2-Cyclobutoxy-4-{6-[2-(4-methyl-naphthalen-1-yl)-ethylamino]-pyrimidin-4-yl}-benzoic acid]
PTGER2 (EP2)
  IC50: 95 nM
EP2
  IC50: 281 nM
EP4
  IC50: 270 nM

## O=C(O)c1ccc(-c2cc(NCCc3cccc4ccccc34)ncn2)cc1OC1CCC1 [Example 8, 2-Cyclobutoxy-4-[6-(2-naphthalen-1-yl-ethylamino)-pyrimidin-4-yl]-benzoic acid]
PTGER2 (EP2)
  IC50: 71 nM
EP2
  IC50: 133 nM
EP4
  IC50: 568 nM

## COc1ccc2ccccc2c1CCNc1cc(-c2cc3c(C(=O)O)cccc3[nH]2)ncn1 [Example 129, 2-{6-[2-(2-Methoxy-naphthalen-1-yl)-ethylamino]-pyrimidin-4-yl}-1H-indole-4-carboxylic acid]
PTGER2 (EP2)
  IC50: 87 nM
EP2
  IC50: 15 nM
EP4
  IC50: 289 nM

## O=C(O)c1ccc(-c2cc(NCCc3ccc(F)c4ccccc34)ncn2)cc1OC1CCC1 [Example 20, 2-Cyclobutoxy-4-{6-[2-(4-fluoro-naphthalen-1-yl)-ethylamino]-pyrimidin-4-yl}-benzoic acid]
PTGER2 (EP2)
  IC50: 73 nM
EP2
  IC50: 199 nM
EP4
  IC50: 680 nM

## CCOc1cc(-c2cc(NCCc3c(Br)ccc4ccccc34)ncn2)ccc1C(=O)O [Example 7, 4-{6-[2-(2-Bromo-naphthalen-1-yl)-ethylamino]-pyrimidin-4-yl}-2-ethoxy-benzoic acid]
PTGER2 (EP2)
  IC50: 22 nM
EP2
  IC50: 67 nM
EP4
  IC50: 909 nM

## CCOc1cc(-c2cc(NCCc3cccc4c3ccn4C)ncn2)ccc1OCC(=O)O [Example 49, (2-Ethoxy-4-{6-[2-(1-methyl-1H-indol-4-yl)-ethylamino]-pyrimidin-4-yl}-phenoxy)-acetic acid]
PTGER2 (EP2)
  IC50: 108 nM
EP2
  IC50: 160 nM
EP4
  IC50: 458 nM

## CCOc1cc(-c2cc(NCCc3c(F)ccc4ccccc34)ncn2)ccc1OCC(=O)O [Example 96, (2-Ethoxy-4-{6-[2-(2-fluoro-naphthalen-1-yl)-ethylamino]-pyrimidin-4-yl}-phenoxy)-acetic acid]
PTGER2 (EP2)
  IC50: 66 nM
EP2
  IC50: 180 nM
EP4
  IC50: 426 nM

## CCOc1cc(-c2cc(NCCc3c(OC)ccc4ccccc34)ncn2)ccc1OCC(=O)O [Example 47, (2-Ethoxy-4-{6-[2-(2-methoxy-naphthalen-1-yl)-ethylamino]-pyrimidin-4-yl}-phenoxy)-acetic acid]
PTGER2 (EP2)
  IC50: 45 nM
EP2
  IC50: 123 nM
EP4
  IC50: 654 nM

## O=C(O)c1ccc(-c2cc(NCCc3cccc4sccc34)ncn2)cc1OC1CCC1 [Example 107, 4-[6-(2-Benzo[b]thiophen-4-yl-ethylamino)-pyrimidin-4-yl]-2-cyclobutoxy-benzoic acid]
PTGER2 (EP2)
  IC50: 149 nM
EP2
  IC50: 250 nM
EP4
  IC50: 267 nM

## CCOc1cc(-c2cc(NCCc3cccc4ccsc34)ncn2)ccc1C(=O)O [Example 101, 4-[6-(2-Benzo[b]thiophen-7-yl-ethylamino)-pyrimidin-4-yl]-2-ethoxy-benzoic acid]
PTGER2 (EP2)
  IC50: 128 nM
EP2
  IC50: 129 nM
EP4
  IC50: 619 nM

## O=C(O)c1ccc(-c2cc(NCCc3c(F)ccc4ccccc34)ncn2)cc1OC1CCC1 [Example 94, 2-Cyclobutoxy-4-{6-[2-(2-fluoro-naphthalen-1-yl)-ethylamino]-pyrimidin-4-yl}-benzoic acid]
PTGER2 (EP2)
  IC50: 34 nM
EP2
  IC50: 53 nM
EP4
  IC50: 368 nM
